Results published in article PMC9408963 (International Journal of Molecular Sciences, 2022).
Converted amounts (≈) assume the structure as drawn. “And” between values parts separate entries of the source, which are not always exact repeats. Identical values can stand only once. Counter-ions that a name gives are not always drawn. Like-named read-outs stand apart in the source and are kept apart here.

Columns and labels:
[1] = system: Xanthomonas oryzae pv. oryzae (Xoo); assay: microbe, parasite or virus in culture; type: cell-based; conditions: for EC50 / inhibition at 100 µg/mL / inhibition at 20 µg/mL: Xanthomonas oryzae; for EC50: read-out: EC50 for inhibition of Xoo growth; for inhibition at 100 µg/mL / inhibition at 20 µg/mL: read-out: Inhibition (%) of Xoo growth
[2] = system: XooFtsZ; type: binding, Xanthomonas oryzae pv. oryzae; conditions: pH 7.4
[3] = system: rice bacterial leaf blight infected by Xoo; conditions: in vivo; cited from earlier work
[4] = system: Xanthomonas oryzae pv. oryzae (Xoo); assay: microbe, parasite or virus in culture; type: cell-based; conditions: for MIC: Xanthomonas oryzae
[5] = biological target: T1, recombinant XooFtsZ GTPase (Xanthomonas oryzae pv. oryzae, UniProt A0ACG7R862); conditions: read-out: IC50 XooFtsZ GTPase activity; cited from earlier work
[6] = system: Xoo cells; type: cell-based, Xanthomonas oryzae pv. oryzae; parameters: average Xoo cell length: unit not given here; conditions: TEM
[7] = in vitro; conditions: rat
[8] = system: XooFtsZ; type: biochemical, Xanthomonas oryzae pv. oryzae; conditions: TEM, 20 μM XooFtsZ, 100 and 200 μM compound
[9] = biological target: T1, recombinant XooFtsZ GTPase; assay: biochemical; conditions: for inhibition at 100 µM / inhibition at 200 µM: read-out: Inhibition Rate (%) of XooFtsZ GTPase activity
[10] = system: human non-small cell lung cancer cell line (A549)
[11] = system: rice plants; conditions: in vivo
[12] = system: rice bacterial leaf blight infected by Xoo; type: in vivo; parameters: curative control efficiency against rice bacterial leaf blight: dose or concentration left out as unconfirmed
[13] = read-out: MIC against Xoo, in vitro

## COc1cc([C@@H]2c3cc4c(cc3[C@@H](O)[C@H]3COC(=O)[C@H]23)OCO4)cc(OC)c1O [DMEP, 4′-demethylepipodophyllotoxin]
[1]
  EC50 for inhibition of Xoo growth: 39.7 µg/mL and 38.7 µg/mL
[2]
  Stern–Volmer quenching constant Kq: 7.593 × 10^11 M^−1 S^−1
  Stern–Volmer quenching constant Ksv: 7593 M⁻¹
[3]
  curative control efficiency against rice bacterial leaf blight: 50.0%
  protective control efficiency against rice bacterial leaf blight: 46.8%
[4]
  MIC against Xoo: 50 µg/mL (≈ 125 µM)
[5]
  IC50: 279 µM and 278 µM

## COc1cc([C@@H]2c3cc4c(cc3[C@@H](O[C@@H]3O[C@@H]5CO[C@@H](c6cccs6)O[C@H]5[C@H](O)[C@H]3O)[C@H]3COC(=O)[C@H]23)OCO4)cc(OC)c1O [Teniposide]
[1]
  EC50: > 200 µg/mL
  inhibition at 100 µg/mL: 20.3 ± 9.21%
[2]; 10 μM XooFtsZ, 25 °C
  Stern–Volmer quenching constant Kq: 2.920 × 10^11 M^−1 S^−1
  Stern–Volmer quenching constant Ksv: 2920 M⁻¹
[6]; 100 mg L^−1, 24 h
  effect on Xoo cell morphology: induced cellular elongation
[4]; [13]
  MIC: > 400 µg/mL

## COc1cc([C@@H]2c3cc4c(cc3[C@H](O)[C@H]3COC(=O)[C@@H]23)OCO4)cc(OC)c1OC [Picropodophyllotoxin]
[1]
  EC50: > 200 µg/mL
[2]
  Stern–Volmer quenching constant Kq: 3.603 × 10^11 M^−1 S^−1
  Stern–Volmer quenching constant Ksv: 3603 M⁻¹
[4]; read-out: MIC against Xoo
  MIC: > 400 µg/mL

## CCCCC(CC)C(=O)Oc1c(OC)cc(C2c3cc4c(cc3C(O)C3COC(=O)C23)OCO4)cc1OC (stereo not shown) [B2]
[1]
  EC50: 153 ± 9.2 µg/mL (≈ 291 µM)
  inhibition at 20 µg/mL: 7.3 ± 2.2%
  inhibition at 100 µg/mL: 44.2 ± 3.2%
[7]
  IC50: 60.8 µM
[8]
  effect on XooFtsZ self-assembly: fewer single-stranded protofilaments and an increase in disordered and disorganized protein aggregation
[2]; 10 μM XooFtsZ, 25 °C
  Stern–Volmer quenching constant Kq: 3.845 × 10^11 M^−1 S^−1
  Stern–Volmer quenching constant Ksv: 3845 M⁻¹
[6]; 100 mg L^−1, 12 h
  average Xoo cell length: 4.03 ± 2.20
[6]; 100 mg L^−1, 24 h
  average Xoo cell length: 5.86 ± 3.23
[9]
  IC50: 159 ± 16.7 µM
  inhibition at 100 µM: 48.6 ± 4.1%
  inhibition at 200 µM: 54.8 ± 5.2%
[10]
  cytotoxicity (comparison): more cytotoxic than either DMEP or gefitinib
[11]
  phytotoxicity to rice plants: non-toxic
[12]; pot experiments
  curative control efficiency against rice bacterial leaf blight: 54.9%
  protective control efficiency against rice bacterial leaf blight: 48.4%

## COc1cc([C@@H]2c3cc4c(cc3[C@@H](O[C@@H]3O[C@@H]5CO[C@@H](C)O[C@H]5[C@H](O)[C@H]3O)[C@H]3COC(=O)[C@H]23)OCO4)cc(OC)c1O [Etoposide]
[1]
  EC50: > 200 µg/mL
  inhibition at 100 µg/mL: 18.8 ± 9.6%
[2]; 10 μM XooFtsZ, 25 °C
  Stern–Volmer quenching constant Kq: 2.396 × 10^11 M^−1 S^−1
  Stern–Volmer quenching constant Ksv: 2396 M⁻¹
[6]; 100 mg L^−1, 24 h
  effect on Xoo cell morphology: induced cellular elongation
[4]; [13]
  MIC: > 400 µg/mL

## COc1cc(C2c3cc4c(cc3C(O)C3COC(=O)C23)OCO4)cc(OC)c1OCC1CO1 (stereo not shown) [A1]
[1]
  EC50: > 200 µg/mL
  inhibition at 20 µg/mL: 10.6 ± 0.9%
  inhibition at 100 µg/mL: 18.3 ± 2.15%
[4]; [13]
  MIC: > 400 µg/mL

## COc1ccc2cc3[n+](cc2c1OC)CCc1cc2c(cc1-3)OCO2 [Berberine, Berberine hydrochloride]
[2]; 10 μM XooFtsZ, 25 °C
  Stern–Volmer quenching constant Kq: 1.789 × 10^12 M^−1 S^−1
  Stern–Volmer quenching constant Ksv: 17890 M⁻¹
[9]
  IC50: 225 ± 18.5 µM
  inhibition at 100 µM: 34.1 ± 2.6%
  inhibition at 200 µM: 48.7 ± 4.1%

## S=c1[nH]nc(NCNc2n[nH]c(=S)s2)s1 [BT, bismerthiazol]
[1]; 20 mg L^−1
  Inhibition (%) of Xoo growth: 30.0 ± 2.20%
[1]; 100 mg L^−1
  Inhibition (%) of Xoo growth: 92.7 ± 1.70%
[1]; in vitro
  EC50 for inhibition of Xoo growth: 36.3 ± 2.50 µg/mL
[4]; in vitro
  MIC against Xoo: 50 µg/mL (≈ 180 µM)

## COc1cc([C@@H]2c3cc4c(cc3[C@H](O)[C@H]3COC(=O)[C@H]23)OCO4)cc(OC)c1OC [Podophyllotoxin]
[1]
  EC50: > 200 µg/mL
[2]
  Stern–Volmer quenching constant Kq: 2.203 × 10^11 M^−1 S^−1
  Stern–Volmer quenching constant Ksv: 2203 M⁻¹
[4]; read-out: MIC against Xoo
  MIC: > 400 µg/mL

## COc1cc(C2c3cc4c(cc3C(O)C3COC(=O)C23)OCO4)cc(OC)c1OS(=O)(=O)c1ccc(C)cc1 (stereo not shown) [B3]
[1]
  EC50: > 200 µg/mL
  inhibition at 20 µg/mL: 4.33 ± 0.8%
  inhibition at 100 µg/mL: 10.2 ± 1.2%
[4]; [13]
  MIC: > 400 µg/mL

## COc1cc([C@@H]2c3cc4c(cc3C[C@H]3COC(=O)[C@@H]32)OCO4)cc(OC)c1OC [Deoxypodophyllotoxin]
[1]
  EC50: > 200 µg/mL
  inhibition at 20 µg/mL: 12.2 ± 4.8%
  inhibition at 100 µg/mL: 10.3 ± 3.5%
[2]; 10 μM XooFtsZ, 25 °C
  Stern–Volmer quenching constant Kq: 2.276 × 10^11 M^−1 S^−1
  Stern–Volmer quenching constant Ksv: 2276 M⁻¹
[4]; [13]
  MIC: > 400 µg/mL

## COc1cc(C2c3cc4c(cc3C(O)C3COC(=O)C23)OCO4)cc(OC)c1O (stereo not shown) [DMEOP, 4′-demethylpodophyllotoxin]
[1]
  EC50 for inhibition of Xoo growth: >200 µg/mL
[2]
  Stern–Volmer quenching constant Kq: 1.757 × 10^11 M^−1 S^−1
  Stern–Volmer quenching constant Ksv: 1757 M⁻¹
[4]
  MIC against Xoo: >400 µg/mL

## Nc1nnc([S-])s1.Nc1nnc([S-])s1.[Cu+2] [TC, Thiodiazole copper]
[12]; in vivo
  curative control efficiency against rice bacterial leaf blight: 31.2%
  protective control efficiency against rice bacterial leaf blight: 30.4%

## CCC(CC)C(=O)Oc1c(OC)cc(C2c3cc4c(cc3C(O)C3COC(=O)C23)OCO4)cc1OC (stereo not shown) [B1]
[1]
  EC50: > 200 µg/mL
  inhibition at 20 µg/mL: 5.33 ± 1.13%
  inhibition at 100 µg/mL: 17.4 ± 6%
[4]; [13]
  MIC: > 400 µg/mL
